Laboratory results reported in ChEMBL document CHEMBL5226314, “Discovery, Structure-Activity Relationship, and Mechanistic Studies of 1-((3R,4S)-3-((Dimethylamino)methyl)-4-hydroxy-4-(3-methoxyphenyl)piperidin-1-yl)-2-(2,4,5-trifluorophenyl)ethan-1-one as a Novel Potent Analgesic” (J Med Chem, 2021).

Legend:
[1] = molecular target: Mu-type opioid receptor (Mus musculus, UniProt P42866); assay: Displacement of [3H] DAMGO from mouse MOR expressed in CHO cell membrane incubated for 90 mins by scintillation method; type: cell membranes
[2] = molecular target: T1, Delta-type opioid receptor (Homo sapiens, UniProt P41143); assay: Displacement of [3H]-DPDPE from human DOR expressed in CHO cell membranes measured after 2 hrs by microbeta scintillation counting method
[3] = molecular target: T2, Kappa-type opioid receptor (Homo sapiens, UniProt P41145); assay: Displacement of [3H]U69593 from human KOR expressed in CHO cell membranes incubated for 30 mins by liquid scintillation counting method
[4] = species on record: Homo sapiens; assay: Selectivity ratio of Ki for DOR (unknown origin) to Ki for MOR (unknown origin)
[5] = species on record: Homo sapiens; assay: Selectivity ratio of Ki for KOR (unknown origin) to Ki for MOR (unknown origin)
[6] = molecular target: T3, Mu-type opioid receptor (Homo sapiens, UniProt P35372); assay: Agonist activity at MOR (unknown origin) expressed in CHO cell membranes assessed as stimulation of [35S]GTPgammaS binding measured after 60 mins by liquid scintillation counting analysis
[7] = molecular target: T3, Mu-type opioid receptor; assay: Agonist activity at MOR (unknown origin) expressed in CHO cell membranes assessed as stimulation of [35S]GTPgammaS binding measured after 60 mins by liquid scintillation counting analysis relative to control; conditions: filed as agonist
[8] = molecular target: T1, Delta-type opioid receptor; assay: Agonist activity at DOR (unknown origin) expressed in CHO cell membranes assessed as stimulation of [35S]GTPgammaS binding measured after 60 mins by liquid scintillation counting analysis
[9] = molecular target: T1, Delta-type opioid receptor; assay: Agonist activity at DOR (unknown origin) expressed in CHO cell membranes assessed as stimulation of [35S]GTPgammaS binding measured after 60 mins by liquid scintillation counting analysis relative to control; conditions: filed as agonist
[10] = test system: Mus musculus; assay: Antinociceptive activity in CD-1 mouse at 10 mg/kg, ip; type: functional
[11] = molecular target: Mu-type opioid receptor (Rattus norvegicus) (UniProt P33535); assay: Inhibition of Wistar rat MOR expressed in CHO cell membrane assessed as inhibition relative to control; type: cell-based; parameters: concentration or dose not given beside the values; conditions: concentration not given here
[12] = molecular target: T1, Delta-type opioid receptor; assay: Inhibition of human DOR expressed in CHO cell membrane assessed as inhibition relative to control; type: cell-based; parameters: concentration or dose not given beside the values; conditions: filed as agonist, concentration not given here
[13] = molecular target: T2, Kappa-type opioid receptor; assay: Inhibition of human KOR expressed in CHO cell membrane assessed as inhibition relative to control; type: cell-based; parameters: concentration or dose not given beside the values; conditions: filed as agonist, concentration not given here

T2 sequence (P41145 whole entry): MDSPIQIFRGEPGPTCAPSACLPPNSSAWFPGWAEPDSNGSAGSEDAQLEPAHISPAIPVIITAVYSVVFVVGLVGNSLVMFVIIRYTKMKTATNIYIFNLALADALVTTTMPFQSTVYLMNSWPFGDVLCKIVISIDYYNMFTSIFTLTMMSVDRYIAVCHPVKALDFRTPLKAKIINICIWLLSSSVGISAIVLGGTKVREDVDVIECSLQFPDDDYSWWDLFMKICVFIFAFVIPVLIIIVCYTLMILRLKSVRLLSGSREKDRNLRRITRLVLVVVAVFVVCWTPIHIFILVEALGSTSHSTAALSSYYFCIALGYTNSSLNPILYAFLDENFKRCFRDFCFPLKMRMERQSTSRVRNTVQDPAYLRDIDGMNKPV
Chain of Mu-type opioid receptor (Rattus norvegicus) (P33535 whole entry): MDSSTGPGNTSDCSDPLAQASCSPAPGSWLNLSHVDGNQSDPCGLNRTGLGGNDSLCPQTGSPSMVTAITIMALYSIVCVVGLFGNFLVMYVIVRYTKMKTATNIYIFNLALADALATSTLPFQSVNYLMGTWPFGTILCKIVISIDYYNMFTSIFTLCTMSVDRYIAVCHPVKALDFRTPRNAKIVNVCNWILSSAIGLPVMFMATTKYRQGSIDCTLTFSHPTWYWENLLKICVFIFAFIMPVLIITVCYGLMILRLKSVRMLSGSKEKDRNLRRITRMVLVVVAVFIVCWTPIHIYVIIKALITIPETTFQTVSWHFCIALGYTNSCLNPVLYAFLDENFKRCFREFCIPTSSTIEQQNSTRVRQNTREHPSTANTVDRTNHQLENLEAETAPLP
T3 sequence (P35372 whole entry): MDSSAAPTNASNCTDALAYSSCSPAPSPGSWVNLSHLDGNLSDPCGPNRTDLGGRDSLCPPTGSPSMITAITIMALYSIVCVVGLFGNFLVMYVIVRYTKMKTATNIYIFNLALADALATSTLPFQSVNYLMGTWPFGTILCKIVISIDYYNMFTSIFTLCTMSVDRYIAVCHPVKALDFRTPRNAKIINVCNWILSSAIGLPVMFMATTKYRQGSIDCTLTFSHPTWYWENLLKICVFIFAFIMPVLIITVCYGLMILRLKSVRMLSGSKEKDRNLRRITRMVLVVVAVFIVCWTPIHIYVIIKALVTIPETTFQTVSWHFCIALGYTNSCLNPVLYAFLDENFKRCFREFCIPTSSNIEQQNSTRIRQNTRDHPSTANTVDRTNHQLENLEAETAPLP
T1 sequence (P41143 whole entry): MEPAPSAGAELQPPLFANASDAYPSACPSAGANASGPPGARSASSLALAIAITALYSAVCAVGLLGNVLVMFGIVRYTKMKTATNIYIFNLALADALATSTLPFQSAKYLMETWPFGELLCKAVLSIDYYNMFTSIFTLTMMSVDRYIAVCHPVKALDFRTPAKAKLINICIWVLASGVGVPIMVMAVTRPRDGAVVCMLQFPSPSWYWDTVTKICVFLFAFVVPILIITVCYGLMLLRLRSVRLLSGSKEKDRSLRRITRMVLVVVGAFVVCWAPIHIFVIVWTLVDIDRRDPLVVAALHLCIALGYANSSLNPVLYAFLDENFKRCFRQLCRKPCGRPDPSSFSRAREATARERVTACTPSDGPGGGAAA
Chain of Mu-type opioid receptor (Mus musculus, UniProt P42866) (P42866 whole entry): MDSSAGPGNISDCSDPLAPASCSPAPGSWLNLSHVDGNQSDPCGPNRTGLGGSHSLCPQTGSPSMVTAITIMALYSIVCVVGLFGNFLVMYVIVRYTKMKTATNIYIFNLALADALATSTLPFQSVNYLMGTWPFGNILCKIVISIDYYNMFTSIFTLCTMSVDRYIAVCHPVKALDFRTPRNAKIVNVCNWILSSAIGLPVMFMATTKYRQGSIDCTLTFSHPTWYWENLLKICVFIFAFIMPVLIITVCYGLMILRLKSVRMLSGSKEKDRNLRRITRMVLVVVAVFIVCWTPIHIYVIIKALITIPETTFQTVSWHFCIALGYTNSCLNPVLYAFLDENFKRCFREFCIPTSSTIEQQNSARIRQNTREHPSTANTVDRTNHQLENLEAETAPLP

CN(C)CC1CN(C(=O)Cc2ccc(OC(F)(F)F)cc2)CCC1(O)c1cccc(O)c1 (stereo not given)
Ki [1]: 45 nM | Ki [2]: 333 nM | Ki [3]: 93.6 nM | Selectivity ratio [4]: 7.4 | Selectivity ratio [5]: 2.1

Cc1ccc(CC(=O)N2CCC(O)(c3cccc(O)c3)C(CN(C)C)C2)cc1 (stereo not given)
Ki [1]: 1.5 nM | Ki [2]: 117 nM | Ki [3]: 61.2 nM | Selectivity ratio [4]: 78.1 | Selectivity ratio [5]: 40.8 | EC50 [6]: 5.64 nM | Emax [7]: 178% | EC50 [8]: 4.8 nM | Emax [9]: 228%

CN(C)CC1CN(C(=O)Cc2ccc(Cl)cc2)CCC1(O)c1cccc(O)c1 (stereo not given)
Ki [1]: 1.5 nM | Ki [2]: 106 nM | Ki [3]: 43.1 nM | Selectivity ratio [4]: 70.5 | Selectivity ratio [5]: 28.7 | EC50 [6]: 5.1 nM | Emax [7]: 207% | EC50 [8]: 314 nM | Emax [9]: 242%

COc1cccc(C2(O)CCN(C(=O)Cc3ccc4ccccc4c3)CC2CN(C)C)c1 (stereo not given)
Ki [1]: 81.6 nM | Ki [2]: > 1000 nM | Selectivity ratio [4]: > 122 | Selectivity ratio [5]: 32.5 | MPE [10]: 0%

COc1cccc(C2(O)CCN(CCc3cccc(C(F)(F)F)c3)CC2CN(C)C)c1 (stereo not given)
Ki [1]: 41.5 nM | Ki [2]: 2230 nM | Ki [3]: 673 nM | Selectivity ratio [4]: 53.7 | Selectivity ratio [5]: 16.2

COc1cccc(C2(O)CCN(C(=O)c3cc(F)c(F)cc3F)CC2CN(C)C)c1 (stereo not given)
inhibition ([11]; filed as agonist): 13% | inhibition [12]: 7% | inhibition [13]: 23% | MPE [10]: 3%

CN(C)CC1CN(C(=O)Cc2ccccc2)CCC1(O)c1ccccc1 (stereo not given)
Ki [1]: 28.1 nM | Ki [2]: 1410 nM | Ki [3]: 1280 nM | Selectivity ratio [4]: 50.1 | Selectivity ratio [5]: 45.4

COc1cccc(C2(O)CCN(C(=O)Cc3cccc(C(F)(F)F)c3)CC2CN(C)C)c1 (stereo not given)
Ki [2]: > 1000 nM | inhibition ([11]; filed as agonist): 37.8% | MPE [10]: 69%

COc1cccc(C2(O)CCN(C(=O)Cn3cnnn3)CC2CN(C)C)c1 (stereo not given)
inhibition [11]: 0% | inhibition [12]: 8.9% | inhibition [13]: 22.9% | MPE [10]: 12%

COc1cccc(C2(O)CCN(C(=O)Cc3cccc(OC(F)(F)F)c3)CC2CN(C)C)c1 (stereo not given)
inhibition ([11]; filed as agonist): 21.5% | inhibition [12]: 13.2% | inhibition [13]: 13.5% | MPE [10]: 47%

CN(C)C[C@H]1CCCC[C@]1(O)c1cccc(O)c1 [O-DESMETHYL TRAMADOL]
Ki [1]: 13 nM | inhibition [12]: 19%

COc1cccc(C2(O)CCN(C(=O)Cc3c[nH]c4ccccc34)CC2CN(C)C)c1 (stereo not given)
Ki [1]: 115 nM | Ki [2]: > 5000 nM | Selectivity ratio [4]: > 43.3 | Selectivity ratio [5]: 26.8 | MPE [10]: 67%

COc1cccc(C2(O)CCN(C(=O)Cc3cccc(F)c3)CC2CN(C)C)c1 (stereo not given)
Ki [1]: 82.3 nM | Selectivity ratio [4]: 29 | Selectivity ratio [5]: 28.6 | MPE [10]: 88.4%

CN(C)CC1CN(C(=O)Cc2cccc(F)c2)CCC1(O)c1cccc(O)c1 (stereo not given)
Ki [1]: 2.2 nM | Ki [2]: 126 nM | Ki [3]: 169 nM | Selectivity ratio [4]: 57.4 | Selectivity ratio [5]: 77

CN(C)CC1CN(C(=O)Cc2ccccc2OC(F)(F)F)CCC1(O)c1cccc(O)c1 (stereo not given)
Ki [1]: 30.5 nM | Ki [2]: 14.1 nM | Ki [3]: 675 nM | Selectivity ratio [4]: 0.5 | Selectivity ratio [5]: 22.1

Cc1ccccc1CC(=O)N1CCC(O)(c2cccc(O)c2)C(CN(C)C)C1 (stereo not given)
Ki [1]: 15.2 nM | Ki [2]: 310 nM | Ki [3]: 227 nM | Selectivity ratio [4]: 20.4 | Selectivity ratio [5]: 15

COc1cccc(C2(O)CCN(C(=O)Cc3ccsc3)CC2CN(C)C)c1 (stereo not given)
inhibition ([11]; filed as agonist): 40.6% | inhibition [12]: 14.7% | inhibition [13]: 20.8% | MPE [10]: 42%

CN(C)CC1CN(C(=O)CCc2ccccc2C(F)(F)F)CCC1(O)c1cccc(O)c1 (stereo not given)
Ki [1]: 3.9 nM | Ki [2]: 191 nM | Ki [3]: 164 nM | Selectivity ratio [4]: 48.9 | Selectivity ratio [5]: 42

COc1cccc(C2(O)CCN(C(=O)C3(c4ccccc4)CCCC3)CC2CN(C)C)c1 (stereo not given)
Ki [1]: 155 nM | inhibition [13]: 32.6% | Selectivity ratio [4]: 10.6 | MPE [10]: 53%

CN(C)CC1CN(C(=O)CCc2ccccc2)CCC1(O)c1cccc(O)c1 (stereo not given)
Ki [1]: 0.7 nM | Ki [2]: 280 nM | Ki [3]: 649 nM | Selectivity ratio [4]: 399 | Selectivity ratio [5]: 927

CN(C)CC1CN(C(=O)Cc2ccc(F)cc2)CCC1(O)c1cccc(O)c1 (stereo not given)
Ki [1]: 87.8 nM | Ki [2]: 136 nM | Ki [3]: 41.9 nM | Selectivity ratio [4]: 1.5 | Selectivity ratio [5]: 0.5 | EC50 [6]: 6.4 nM | Emax [7]: 208% | EC50 [8]: 778 nM | Emax [9]: 207%

COc1cccc(C2(O)CCN(C(=O)C3(c4ccccc4)CCC3)CC2CN(C)C)c1 (stereo not given)
Ki [1]: 225 nM | Selectivity ratio [4]: 3.2 | Selectivity ratio [5]: 0.9 | MPE [10]: 5%
